{"source": "paper PMC12662929", "about": "“MR2938 relieves DSS-induced colitis in mice through inhibiting NF-κB signaling and improving epithelial barrier” (Marine Life Science & Technology, 2025)", "key": {"[1]": {"tested_on": "NF-κB signaling in Raw264.7 cells", "assay": "LPS-induced inflammation / NF-κB signaling in Raw264.7 macrophages", "format": "cell-based", "protocol": "Raw264.7 cells and Caco-2 cells were obtained from the Cell Bank of the Chinese Academy of Sciences (Shanghai, China) and cultured in high-glucose DMEM medium supplemented with 10% fetal bovine serum (FBS) at 37 ℃ in a 5% CO2 atmosphere. Raw264.7 cells were seeded and incubated in six-well plates (8 × 10^5 cells/well) overnight, and then treated with different concentrations of MR2938 for 2 h. Then Raw264.7 cells were activated by lipopolysaccharide (LPS, 100 ng/mL, Sigma-Aldrich Co., Shanghai, CN) for 2 h or 6 h for transcription or protein level analysis.\n(§1) Total RNAs of colon tissues were extracted using tissue RNA kit (Omega Biotek, China) following the manufacturer’s protocol. cDNA was obtained from RNA samples using ReverTra Ace qPCR RT Master Mix with gDNA Remover (TOYOBO, Japan). Quantitative real-time PCR was performed by Applied Biosystems® QuantStudio Q5 instrument (Thermo, USA) with SYBR qPCR Master Mix (Vazyme, China). The relative gene expression was measured and normalized to β-actin expression using 2^−ΔΔCt method.\n(§2) For immunofluorescence staining, the frozen colon slides or cells were fixed in 4% paraformaldehyde, permeabilized with 0.1% Triton X-100, blocked non-specific proteins in 5% BSA/PBS for 1 h, and incubated overnight at 4 °C with Occludin, ZO-1 or p65 primary antibodies. The slides were then washed with phosphate buffer (PBS) and incubated with Dylight 488 labeling secondary antibody for 1 h at room temperature. Finally, the colon slides were stained with DAPI for 10 min, and then imaged and captured using ECHO microscope.\nTotal proteins were extracted with RIPA lysis buffer. After determining the protein concentration by the BCA assay kit, an equal amount of protein was subjected to SDS-PAGE and electro-transferred to a PVDF membrane. The membrane was immune detected with specific antibodies overnight at 4 °C. Proteins were quantified by Image J software. The target antibodies against p65, phosphorylated p65, IκBα, p-IκBα, TLR4, NLRP3, caspase-1, IL-1β, and β-actin were purchased from Proteintech or Cell Signaling Technology."}, "[2]": {"assay": "In vivo PK study in SD rats", "conditions": "plasma, rat", "protocol": "MR2938 was synthesized in-house following previously reported procedure (Lv et al. [2023]), and confirmed by NMR and HPLC chromatography (purity > 95%). To detect the pharmacokinetic characters of MR2938 in the plasma, the SD rats were orally and intravenous (i.v.) administered with MR2938 at a dose of 10 mg/kg and 3 mg/kg, respectively. The vehicle consisted of 10% DMSO, 30% saline, and 60% PEG400. Plasma samples were collected at 5 min, 15 min, 30 min and 1 h, 2 h, 4 h, 6 h, 8 h, 12 h, and 24 h after administration. After analyzing the concentration of MR2938 via LC–MS, the values of Cmax, Tmax, T1/2, Cl, AUClast, and AUCInf were calculated (Hu et al. [2018]). The bioavailability of MR2938 from the p.o. was calculated by comparing the area under the concentration–time curve (AUCInf) for the […] dose and that for the i.v. dose."}, "[3]": {"tested_on": "proinflammatory cytokines mRNA", "set-up": "method as in Lv et al. 2023", "conditions": "2.5 μmol/L; ref Lv et al. 2023; cited from earlier work"}, "AChE": {"tested_on": "AChE", "set-up": "method as in Lv et al. 2023", "conditions": "ref Lv et al. 2023; cited from earlier work"}, "[4]": {"tested_on": "DSS-induced colitis C57BL/6 mice", "assay": "Acute DSS-induced murine colitis model", "format": "in vivo, mouse", "conditions": "for body weight: MR2938 50 or 100 mg/kg or 5-ASA 100 mg/kg, oral", "protocol": "After 1 week of acclimation, the C57BL/6 mice were randomly divided into the following groups (n = 6/group): control group, model group (DSS), DSS + 5-aminosalicylic acid (5-ASA, positive group, 100 mg/kg), DSS + MR2938 (100 mg/kg) and DSS + MR2938 (50 mg/kg). Colitis was induced by administration of 3% DSS drinking water for 5 consecutive days. Water consumption was monitored daily. At the same time, the mice in each group were given the corresponding agents: 5-ASA (100 mg/kg) and MR2938 (50 mg/kg or 100 mg/kg). The dosages of 5-ASA and MR2938 were adopted based on previous reports and our pilot trial. MR2938 or 5-ASA was dissolved in a mixture of saline and DMSO (95:5) to provide the desired concentrations.\nChanges in bodyweight were assessed daily over the 9-day experimental period. On the last day of the experiment, mice were sacrificed, and the entire colon was excised. Colon length was measured and gently washed with physiological saline. Then two pieces with 0.5 cm in length of the distal section were used for histological assessment and immunofluorescence staining. The remaining colon tissue samples were used to determine MPO activity and the concentrations of cytokines.\nDistal colons were harvested, fixed in 4% paraformaldehyde, and embedded in paraffin. Five-μm-thick tissue sections were stained with hematoxylin and eosin (HE) for light microscopic examination using a DP73 light microscope (Olympus, Tokyo, Japan). Colonic mucosa damage score was assessed as previously described. To count colonic goblet cells, fixed colonic tissues were also stained in Alcian blue for 10–15 min and dehydrated with 100% alcohol and xylene, followed by image acquisition on a microscope.\nThe serum was obtained from the collected blood samples through centrifugation at 3500 g for 15 min at 4 °C. A portion of frozen colon samples was homogenized with RIPA lysis buffer (Solarbio, Beijing, China) to extract total proteins. The homogenate was centrifuged at 12,000 × g at 4 °C for 15 min. The protein contents were quantified using a bicinchoninic acid (BCA) protein assay kit (Solarbio, Beijing, China) according to the manufacturer’s instructions. The concentrations of proinflammatory cytokines IL-1β, IL-6, and TNF-α in the serum and colon tissue were measured by ELISA (Jingmei Biotech, China) according to the manufacturers’ recommendations. MPO activity was measured using a myeloperoxidase assay kit (Jingmei Biotech, China).\nas §1, §2"}, "Caco-2 cells": {"tested_on": "Caco-2 cells", "assay": "LPS-induced tight junction disruption in Caco-2 cells (immunofluorescence)", "format": "cell-based", "protocol": "Caco-2 cells were seeded and incubated in 24-well plates (1 × 10^5 cells/well) for 48 h and treated with 10 μmol/L of MR2938 for 2 h. Then 100 ng/mL of LPS was added for 24 h to induce tight function disruption.\nas §2"}, "NO production": {"tested_on": "NO production", "set-up": "method as in Lv et al. 2023", "conditions": "ref Lv et al. 2023; cited from earlier work"}, "[5]": {"assay": "Brain permeability in mice after i.p. administration", "format": "in vivo, mouse", "conditions": "n=3", "protocol": "Table S2. Concentration of MR2938 in brain after its i.p. administration (6.5 mg/kg)"}}, "note": "pIC50: −log10 of the molar value."}
{"smiles": "COc1cc(OC)c2c(=O)[nH]c(-c3ccc(N4CCN(C)CC4)cc3)nc2c1", "note": "[MR2938]", "values": [{"measurement": "NF-κB fluorescence intensity / subcellular location", "setting": "[1]; 10 μM pre-treatment, LPS activation, immunofluorescence", "value": "dropped and was mostly accumulated in the cytoplasm"}, {"measurement": "total p65", "setting": "[1]; LPS stimulated, western blot", "value": "slightly downregulated"}, {"measurement": "phosphorylation of IκBα and p65", "setting": "[1]; LPS stimulated, western blot, dose-dependent", "value": "effectively inhibited"}, {"measurement": "expression of TLR4", "setting": "[1]; LPS stimulated, decrease did not correlate to concentration", "value": "reduced"}, {"measurement": "expressions of IL-1β, NLRP3 and caspase-1 (mRNA and protein)", "setting": "[1]; qPCR and western blot, vs LPS stimulated", "value": "significantly reduced"}, {"measurement": "AUC(0-inf)", "setting": "[2]; iv, 3 mg/kg i.v., mean n = 3", "value": 1070, "unit": "ng·h/mL"}, {"measurement": "AUC(0-t)", "setting": "[2]; iv, 3 mg/kg i.v., mean n = 3", "value": 1060, "unit": "ng·h/mL"}, {"measurement": "Cmax", "setting": "[2]; iv, 3 mg/kg i.v., mean n = 3", "value": 1030, "unit": "ng/mL"}, {"measurement": "half-life", "setting": "[2]; iv, 3 mg/kg i.v., mean n = 3", "value": 2.25, "unit": "h"}, {"measurement": "clearance", "setting": "[2]; iv, 3 mg/kg i.v., mean n = 3, read-out: Cl (plasma clearance)", "value": 47.2, "unit": "mL/min/kg"}, {"measurement": "bioavailability", "setting": "[2]; oral, 10 mg/kg p.o. vs 3 mg/kg i.v., from AUCInf, read-out: F (oral bioavailability)", "value": 59, "unit": "%"}, {"measurement": "AUC(0-inf)", "setting": "[2]; po, 10 mg/kg p.o., mean n = 3", "value": 2110, "unit": "ng·h/mL"}, {"measurement": "AUC(0-t)", "setting": "[2]; po, 10 mg/kg p.o., mean n = 3", "value": 2080, "unit": "ng·h/mL"}, {"measurement": "Cmax", "setting": "[2]; po, 10 mg/kg p.o., mean n = 3", "value": 592, "unit": "ng/mL"}, {"measurement": "Tmax", "setting": "[2]; po, 10 mg/kg p.o., mean n = 3", "value": 0.667, "unit": "h"}, {"measurement": "half-life", "setting": "[2]; po, 10 mg/kg p.o., mean n = 3", "value": 2.87, "unit": "h"}, {"measurement": "mRNA level of proinflammatory cytokines", "setting": "[3]", "value": "significantly decreased"}, {"measurement": "pIC50", "setting": "AChE", "value": 5.30}, {"measurement": "Occludin and ZO-1 proteins in colon (immunofluorescence), comparison with 5-ASA", "setting": "[4]; 100 mg/kg", "value": "as effective as 5-ASA"}, {"measurement": "mRNA levels of Occludin, ZO-1 and claudin-1 in colon", "setting": "[4]; 100 mg/kg vs colitis group, no statistical difference", "value": "upregulated"}, {"measurement": "colon length (shortening)", "setting": "[4]; 3% DSS, 100 mg/kg oral, similar to control group, significantly longer than 5-ASA group", "value": "greatly relieved"}, {"measurement": "body weight", "setting": "[4]; 3% DSS", "value": "marked improvement"}, {"measurement": "inflammatory cell infiltration, mucosal damage and overall colonic damage score (HE histology)", "setting": "[4]; 3% DSS, oral administration", "value": "obvious attenuation"}, {"measurement": "concentration of MPO in colon", "setting": "[4]; DSS-induced", "value": "slight decrease"}, {"measurement": "concentration of MPO in serum", "setting": "[4]; DSS-induced", "value": "slight decrease"}, {"measurement": "colonic level of IL-1β", "setting": "[4]; ELISA, colon tissue", "value": "decreased"}, {"measurement": "colonic level of TNF-α", "setting": "[4]; ELISA, colon tissue", "value": "decreased"}, {"measurement": "IL-1β in mouse serum", "setting": "[4]; ELISA, 50 mg/kg and 100 mg/kg", "value": "significant decrease"}, {"measurement": "TNF-α in mouse serum", "setting": "[4]; ELISA, 50 mg/kg and 100 mg/kg", "value": "significant decrease"}, {"measurement": "serum IL-6 level", "setting": "[4]; ELISA, 50 mg/kg group compared with 100 mg/kg group", "value": "no statistical difference between the two groups"}, {"measurement": "gene transcription of IL-1β in colon", "setting": "[4]; RT-qPCR", "value": "noticeably inhibited"}, {"measurement": "gene transcription of TNF-α in colon", "setting": "[4]; RT-qPCR", "value": "noticeably inhibited"}, {"measurement": "transcription of IL-6 in colon", "setting": "[4]; RT-qPCR, 100 mg/kg, compared with 5-ASA", "value": "more favorable effects on the transcription of IL-6 than 5-ASA"}, {"measurement": "GPx in colon", "setting": "[4]; colitis group vs treatment group", "value": "no significant difference"}, {"measurement": "Occludin and ZO-1 proteins in colon (immunofluorescence)", "setting": "[4]; dose-dependent, 50 and 100 mg/kg", "value": "partially alleviate the depletion"}, {"measurement": "mucin-secreting goblet cells in colonic epithelia (Alcian blue staining)", "setting": "[4]; similar to control group", "value": "rescued the differentiation of mucin-producing goblet cells"}, {"measurement": "organ indexes of mice", "setting": "[4]; treatment group vs control groups", "value": "no obvious differences"}, {"measurement": "production of MDA in colon", "setting": "[4]; vs DSS group", "value": "significantly suppressed"}, {"measurement": "expression of Occludin and ZO-1", "setting": "Caco-2 cells; 10 μmol/L, LPS 100 ng/mL stimulated", "value": "able to rescue expression levels"}, {"measurement": "Occludin and ZO-1 protein levels", "setting": "Caco-2 cells; MR2938 alone, without LPS", "value": "little changes"}, {"measurement": "pIC50", "setting": "NO production", "value": 5.48}, {"measurement": "Amount in brain", "setting": "[5]; i.p. 6.5 mg/kg (145 μg)", "value": 236.7, "unit": "ng"}, {"measurement": "Concentration in brain", "setting": "[5]; i.p. 6.5 mg/kg", "value": 222.07, "unit": "ng/g"}]}
{"smiles": "O=C(c1ccc(Nc2nccc(-c3cc4ccccc4s3)n2)cc1)N1CCC(N2CCCC2)CC1", "note": "[IKK16, reference compound]", "values": [{"measurement": "LPS-elevated expression level of NLRP3", "setting": "[1]; western blot, NF-κB pathway blocked", "value": "obviously decreased"}]}
{"smiles": "Nc1ccc(O)c(C(=O)O)c1", "note": "[5-ASA, 5-aminosalicylic acid, reference compound]", "values": [{"measurement": "body weight", "setting": "[4]; 3% DSS", "value": "marked improvement"}]}
